Entries after “also recorded” stand apart in the source; their conditions may differ. Where two headings read alike, the source gives them in different places.
How the values were obtained:
[1] = system: estrogen receptors; details: cited from earlier work
[2] = target: T1, human estrogen receptor ER-beta (Homo sapiens, UniProt Q92731); assay: ER-beta MMTV-ERE-LUC luciferase reporter gene assay in transiently co-transfected Hela cells; assay type: cell-based; details: for ER-alpha versus ER-beta selectivity (in words): compared with ER-alpha
T1 construct: expressed in transfected cells; host or cells: Hela cells, transient co-transfection with lipofectamine
Method: (§1) To assay estrogen receptor agonist activity, Hela cells were grown in 24-well microtiter plates and then transiently co-transfected with two plasmids using lipofectamine. The first plasmid comprised DNA encoding human estrogen receptor (either ER-alpha or ER-beta), and the second plasmid comprised an estrogen-driven reporter system comprising: a luciferase reporter gene (LUC) whose transcription is under the control of upstream regulatory elements comprising 4 copies of the vitelogenin estrogen response element (ERE) cloned into the mouse mammary tumor virus (MMTV) promoter (the full name for the reporter system being “MMTV-ERE-LUC”). Cells were exposed to herbal extracts in RPMI 1640 medium, supplemented with 10% charcoal-treated fetal calf serum, 2 mM L-glutamine, 0.1 mM non-essential amino acids and 1 mM sodium pyruvate for 42-48 hours at 37° C. in a 5% carbon dioxide incubator. […] Replicate wells exposed to the solvent in which herbal extracts were dissolved (i.e. ethanol or methanol) were used as negative controls. After the 42-48 hr incubation period, cells were rinsed with phosphate buffered saline(PBS), lysis buffer (Promega Corp) was added, and cell lysates collected for measurement of luciferase activity with a luminometer. […] All data points are in triplicate.

[3] = target: T2, human estrogen receptor ER-alpha (Homo sapiens, UniProt P03372); assay: ER-alpha MMTV-ERE-LUC luciferase reporter gene assay in transiently co-transfected Hela cells; assay type: cell-based
T2 construct: expressed in transfected cells; host or cells: Hela cells, transient co-transfection with lipofectamine
T2 sequence (P03372 1-595): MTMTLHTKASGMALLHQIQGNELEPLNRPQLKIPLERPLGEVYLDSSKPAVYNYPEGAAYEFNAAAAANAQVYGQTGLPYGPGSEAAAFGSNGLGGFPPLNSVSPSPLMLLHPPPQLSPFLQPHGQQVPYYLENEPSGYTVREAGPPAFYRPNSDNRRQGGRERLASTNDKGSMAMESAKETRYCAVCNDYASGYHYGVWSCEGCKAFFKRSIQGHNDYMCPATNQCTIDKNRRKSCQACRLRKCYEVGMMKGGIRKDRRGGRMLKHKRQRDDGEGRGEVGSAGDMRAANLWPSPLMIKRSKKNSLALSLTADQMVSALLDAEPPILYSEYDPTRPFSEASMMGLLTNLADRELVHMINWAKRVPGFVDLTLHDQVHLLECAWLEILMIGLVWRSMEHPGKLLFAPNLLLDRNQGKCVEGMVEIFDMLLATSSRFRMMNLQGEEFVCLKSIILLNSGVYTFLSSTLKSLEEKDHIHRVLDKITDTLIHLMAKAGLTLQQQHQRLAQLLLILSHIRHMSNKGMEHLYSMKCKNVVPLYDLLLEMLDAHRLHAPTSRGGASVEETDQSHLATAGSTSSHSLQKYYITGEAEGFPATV
Method: as §1

[4] = system: human estrogen receptor (either ER-alpha or ER-beta); assay: Estrogen receptor bioassay as in Example 1, ER subtype not stated; assay type: cell-based; details: under the conditions described herein
Method: as §1

[5] = system: mouse heart allograft; details: cited from earlier work
[6] = mice, intra-peritoneal 32 mg/kg/day for 14 days; cited from earlier work

T1 sequence (Q92731 whole entry): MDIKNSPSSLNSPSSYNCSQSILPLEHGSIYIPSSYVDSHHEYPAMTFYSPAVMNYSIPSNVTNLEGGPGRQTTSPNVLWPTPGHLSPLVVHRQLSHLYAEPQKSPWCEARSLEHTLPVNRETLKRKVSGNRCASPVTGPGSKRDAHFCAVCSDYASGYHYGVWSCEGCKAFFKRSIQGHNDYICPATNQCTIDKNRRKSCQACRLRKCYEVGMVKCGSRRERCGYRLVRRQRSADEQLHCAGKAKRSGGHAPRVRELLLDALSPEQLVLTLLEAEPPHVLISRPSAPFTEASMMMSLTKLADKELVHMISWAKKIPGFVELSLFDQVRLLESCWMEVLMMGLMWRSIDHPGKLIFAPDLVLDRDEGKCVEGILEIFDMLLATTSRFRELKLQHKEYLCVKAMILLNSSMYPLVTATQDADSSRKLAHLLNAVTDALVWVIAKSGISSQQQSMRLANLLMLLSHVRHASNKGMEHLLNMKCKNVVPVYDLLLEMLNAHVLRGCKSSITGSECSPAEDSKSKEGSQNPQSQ

Compound | ER-beta agonist activity (in words) [2] | Estrogenic activity (fold increased over vehicle), ER-beta ([2]; dose 0.05 μg/ml) | Estrogenic activity (fold increased over vehicle), ER-beta ([2]; dose 0.5 μg/ml) | Estrogenic activity (fold increased over vehicle), ER-beta ([2]; dose 5 μg/ml) | ER-alpha agonist activity (in words) [3] | Estrogenic activity (fold increased over vehicle), ER-alpha ([3]; dose 0.05 μg/ml) | Estrogenic activity (fold increased over vehicle), ER-alpha ([3]; dose 0.5 μg/ml) | Estrogenic activity (fold increased over vehicle), ER-alpha ([3]; dose 5 μg/ml) | Relative potency of estrogenic activity compared to genistein [1] | also measured
O=c1cc(-c2ccc(O)c(O)c2)oc2cc(O)cc(O)c12 [Luteolin] | – | – | – | – | – | – | – | – | 58% | –
C=C(C)C(O)Cc1cc(-c2cc(=O)c3c(O)cc(O)cc3o2)cc(CC(O)C(=C)C)c1O (stereo not drawn) [Compound II] | – | – | – | – | – | – | – | – | – | Estrogenic activity (in words) [4]: no detectable estrogenic activity
COc1ccc(-c2oc3c(CC=C(C)C)c(O)cc(O)c3c(=O)c2O[C@@H]2O[C@@H](C)[C@H](O)[C@@H](O)[C@H]2O)cc1 [Baihuoside I] | – | – | – | – | – | – | – | – | – | Mouse heart allograft survival [5]: effective at prolonging mouse heart allograft survival; Side effects [6]: no side effects
O=c1c(O)c(-c2ccc(O)c(O)c2)oc2cc(O)cc(O)c12 [quercetin] | – | – | – | – | – | – | – | – | 10% | –

Second part, led by results:

ER-beta agonist activity (in words) [2] | Estrogenic activity (fold increased over vehicle), ER-beta ([2]; dose 0.05 μg/ml) | Estrogenic activity (fold increased over vehicle), ER-beta ([2]; dose 0.5 μg/ml) | Estrogenic activity (fold increased over vehicle), ER-beta ([2]; dose 5 μg/ml) | ER-alpha agonist activity (in words) [3] | Estrogenic activity (fold increased over vehicle), ER-alpha ([3]; dose 0.05 μg/ml) | Estrogenic activity (fold increased over vehicle), ER-alpha ([3]; dose 0.5 μg/ml) | Estrogenic activity (fold increased over vehicle), ER-alpha ([3]; dose 5 μg/ml) | Compound | Relative potency of estrogenic activity compared to genistein [1] | also measured
activated ER-beta strongly | 1.514 fold | 6.093 fold | 23.132 fold | very weak ER alpha activity | 1.031 fold | 2.357 fold | 2.694 fold | CC(C)=CCc1cc(-c2cc(=O)c3c(O)cc(O)cc3o2)cc2c1OC(C(C)(C)O)C2O (stereo not drawn) [Compound III] | – | Concentration with ER-beta activity equivalent to estradiol at 1 nM [2]: 15 ng/mL; Factor by which ER-beta is activated more strongly than ER-alpha ([2]; at 5 μg/ml): about nine-fold; ER-alpha versus ER-beta selectivity (in words) [2]: activates ER-beta more strongly than it activates ER-alpha; also recorded: shows specificity for ER-beta; ER-alpha versus ER-beta selectivity (in words) ([2]; listed as AF1): stronger than that observed for ER-alpha estrogen receptors; ER-beta stimulatory activity compared with estradiol (in words) ([2]; dose-dependent): stronger than that observed for estradiol; ER-alpha activity as % of that of estradiol [3]: 26%
can activate both ER-alpha and ER-beta | 2.598 fold | 18.763 fold | 13.289 fold | can activate both ER-alpha and ER-beta | 4.940 fold | 9.089 fold | 11.618 fold | CC(C)=CCc1cc(-c2cc(=O)c3c(O)cc(O)cc3o2)ccc1O [Compound I, yinyanghuo D] | – | ER-alpha versus ER-beta selectivity (in words) ([2]; listed as AF6): activate both ER-alpha and ER-beta equally; also recorded: estrogen receptor agonist activity on both ER-alpha and ER-beta; ER-beta agonist activity (in words) ([2]; listed as AF6): strong ER-alpha and ER-beta activity; ER-alpha agonist activity (in words) ([3]; listed as AF6): strong ER-alpha and ER-beta activity
